Where a SMILES comes first, the peptide text is derived from it. [ ]: non-standard residue; d: D form. NMeF = CN[C@@H](Cc1ccccc1)C(=O)O; NMeL = CN[C@@H](CC(C)C)C(=O)O; dNMeL = CN[C@H](CC(C)C)C(=O)O; dNMeV = CN[C@@H](C(=O)O)C(C)C; NMeV = CN[C@H](C(=O)O)C(C)C; dNMeA = CN[C@H](C)C(=O)O
Columns and labels:
[1] = PAMPA
in vitro = details: PAMPA, PAMPA_Papp_Avg

Row | Compound | PAMPA_R1 [1] | PAMPA_R3 [1] | Papp (in vitro) [×10⁻⁶ cm/s] | PAMPA_Papp_Avg [1]
1 | CC(C)[C@H]1C(=O)N[C@H](Cc2ccccc2)C(=O)N2CCC[C@H]2C(=O)N[C@H](Cc2ccccc2)C(=O)N2CCC[C@H]2C(=O)N2CCC[C@H]2C(=O)N1C [Design D6.6, PRO PRO *VAL DPHE PRO DPHE] (cyclo([NMeV][dF]P[dF]PP)) | 2.64e-06 cm/s | 6.73e-06 cm/s | 3.64 | 
2 | CC(C)[C@H]1NC(=O)[C@@H]2CCCN2C(=O)[C@@H](C)NC(=O)[C@@H](Cc2ccccc2)NC(=O)[C@@H]2CCCN2C(=O)[C@H](Cc2ccccc2)NC1=O [Design D6.7, DPHE DALA PRO DVAL PHE PRO] (cyclo(FP[dF][dA]P[dV])) | 6.27e-07 cm/s | 3.67e-07 cm/s | 0.424 | 
3 | CC(C)C[C@H]1C(=O)N2CCC[C@@H]2C(=O)N[C@@H](Cc2ccccc2)C(=O)N2CCC[C@H]2C(=O)N(C)[C@H](C(C)C)C(=O)N[C@H](Cc2ccccc2)C(=O)N1C [Design D6.10, *DVAL DPHE *LEU DPRO PHE PRO] (cyclo(FP[dNMeV][dF][NMeL][dP])) | 1.23e-05 cm/s | 1.13e-05 cm/s | 11.6 | 
4 | CC[C@H](C)[C@@H]1NC(=O)[C@H]2CCCN2C(=O)[C@@H]2CCCN2C(=O)[C@H](CC(C)C)NC(=O)[C@@H](C(C)C)NC(=O)[C@@H](CC(C)C)N(C)C(=O)[C@@H]2CCCN2C1=O [Design D7.1, PRO *DLEU DVAL LEU PRO DPRO ILE] (cyclo(IP[dNMeL][dV]LP[dP])) | 2.76e-06 cm/s | 3.53e-06 cm/s | 2.93 | 
5 | CC[C@H](C)[C@@H]1NC(=O)[C@H](CC(C)C)N(C)C(=O)[C@H]2CCCN2C(=O)[C@@H](CC(C)C)NC(=O)[C@H](CC(C)C)NC(=O)[C@@H](CC(C)C)N(C)C(=O)[C@@H]2CCCN2C1=O [Design D7.2, DLEU DPRO *LEU ILE PRO *DLEU LEU] (cyclo(IP[dNMeL]L[dL][dP][NMeL])) | 1.48e-05 cm/s |  | 11.6 | 
6 | CC[C@@H](C)[C@H]1NC(=O)[C@@H](CC(C)C)N(C)C(=O)[C@H](CC(C)C)NC(=O)[C@@H](C(C)C)NC(=O)[C@@H]2CCCN2C(=O)[C@H]2CCCN2C(=O)[C@@H]([C@H](C)CC)NC(=O)[C@@H](C)N(C)C(=O)[C@@H]([C@H](C)CC)NC(=O)[C@H](Cc2ccccc2)N(C)C(=O)[C@H]2CCCN2C(=O)[C@@H](Cc2ccccc2)NC1=O [Design D12.7, DPHE DPRO *PHE DILE *DALA DILE DPRO PRO DVAL LEU *DLEU DILE] (cyclo([dV]L[dNMeL][dI][dF][dP][NMeF][dI][dNMeA][dI][dP]P)) | BQL | BQL |  | BQL
7 | CC[C@H](C)[C@@H]1NC(=O)[C@H](C)NC(=O)[C@H](CC(C)C)NC(=O)[C@@H]2CCCN2C(=O)[C@@H](C(C)C)NC(=O)[C@H](CC(C)C)NC(=O)[C@@H]2CCCN2C(=O)[C@H]2CCCN2C(=O)[C@H](C)NC(=O)[C@H](Cc2ccccc2)NC(=O)[C@@H](CC(C)C)NC(=O)[C@H]2CCCN2C1=O [Design D12.8, PHE ALA DPRO PRO LEU DVAL PRO LEU ALA ILE DPRO DLEU] (cyclo(L[dV]PLAI[dP][dL]FA[dP]P)) | BQL | BQL |  | BQL
8 | CC[C@@H](C)[C@H]1NC(=O)[C@@H]2CCCN2C(=O)[C@H](CC(C)C)NC(=O)[C@@H](CC(C)C)NC(=O)[C@@H](Cc2ccccc2)NC(=O)[C@@H](Cc2ccccc2)NC(=O)[C@@H](C)NC(=O)[C@H]2CCCN2C(=O)[C@@H]2CCCN2C(=O)[C@@H](C(C)C)NC(=O)[C@@H]2CCCN2C(=O)[C@H]2CCCN2C1=O [Design D12.9, DILE DPRO PRO DVAL PRO DPRO DALA DPHE DPHE DLEU LEU PRO] (cyclo([dV]P[dP][dA][dF][dF][dL]LP[dI][dP]P)) | BQL | BQL |  | BQL
9 | *DPHE *LEU PRO DLEU VAL *DLEU PRO DILE *ALA *ALA [Design D10.65] | BQL | BQL |  | BQL
10 | DPRO PRO *DLEU DALA PRO *DLEU ALA *GLY *DVAL DPHE [Design D10.7] | BQL | BQL |  | BQL
11 | PRO DPRO DALA DPHE DLEU ILE DPHE *DALA LEU PRO NLE [Design D11.14.p1] | BQL | BQL |  | BQL
12 | PRO DPRO DALA DPHE DLEU ILE DPHE *DALA LEU PRO NLE [Design D11.14.p2] | BQL | BQL |  | BQL
13 | PRO DPRO DPHE *DLEU *DPHE DLEU ILE PRO *DLEU LEU [Design D10.15] | BQL | BQL |  | BQL
